Laboratory results from ChEMBL document CHEMBL5661943, “ASAP - In vitro antiviral effect” (2024).

What was measured:
Zika virus [1] = assay: EC50 is reported via analysis of immunofluorescence staining. The assay has been performed by Icahn School of Medicine at Mount Sinai.; assay type: functional, organism-based, Chlorocebus sabaeus, VeroE6/TMPRSS2; conditions: Baseline response 0 %, P-gp concentration 2 uM, P-gp inhibitor Elacidar
dengue virus type 2 [2] = assay: Functional assay to measure dose dependent changes in antiviral-drug inhibitory efficacy against Dengue virus type 2 New Guinea C in Vero E6 miRFP670 cells (cotreated with P-gp inhibitor, CP100356). Cells are treated with antiviral candidates that are serially diluted, following infection, cells are fixed. EC50 is reported via analysis of fluorescence intensity using high-content imager. The …; assay type: organism-based, Chlorocebus sabaeus, Vero C1008; conditions: Baseline response 0 %, Maximum response 100 %, P-gp concentration 500 nM, P-gp inhibitor CP100356
dengue virus type 2 [3] = assay: Functional immunofluorescence assay to measure dose dependent changes in antiviral-drug inhibitory efficacy against Dengue virus type 2 Thailand/16681/84 in Vero E6/TMPRSS2 cells (cotreated with P-gp inhibitor, Elacridar). Cells are treated with antiviral candidates that are serially diluted, following infection, cells are fixed. EC50 is reported via analysis of immunofluorescence staining. The assay has been performed by Icahn School of Medicine at Mount Sinai.; assay type: organism-based, Chlorocebus sabaeus, VeroE6/TMPRSS2; conditions: Baseline response 0 %, Maximum response 100 %, P-gp concentration 2 uM, P-gp inhibitor Elacidar
Zika virus [4] = assay: (§1) Functional CPE-based assay to measure dose dependent changes in antiviral-drug inhibitory efficacy against Zika virus MR766 in Vero E6 miRFP670 cells (cotreated with P-gp inhibitor, CP100356). Cells are treated with antiviral candidates that are serially diluted. EC50 is reported via analysis of MTS assay as a readout of CPE. The assay has been performed by KU Leuven.; assay type: organism-based, Chlorocebus sabaeus, Vero C1008; conditions: Baseline response 0 %, Maximum response 100 %, P-gp concentration 500 nM, P-gp inhibitor CP100356
Zika virus [5] = assay: as §1, with “cells.” for “cells (cotreated with P-gp inhibitor, CP100356).”; assay type: organism-based, Chlorocebus sabaeus, Vero C1008; conditions: for EC90: Baseline response 0 %, Maximum response 100 %

## C#C[C@@]1(O)[C@H](O)[C@@H](CO)O[C@H]1n1ccc2c(N)ncnc21
Zika virus [1]; EC90 CI (lower) 0.001 uM, EC90 CI (upper) 0.006 uM, Hill slope -0.989, Maximum measured 96.238 %, Maximum response 100 %, Minimum measured 0.519 %, R squared 0.897
  EC90: 224 nM
Zika virus [1]; EC90 CI (lower) 0.002 uM, EC90 CI (upper) 0.011 uM, Hill slope -0.683, Maximum measured 98.748 %, Maximum response 100 %, Minimum measured 0.794 %, R squared 0.927
  EC90: 2880 nM
Zika virus [1]; EC90 CI (lower) 0.002 uM, EC90 CI (upper) 0.016 uM, Hill slope -0.839, Maximum measured 81.893 %, Maximum response 100 %, Minimum measured 1.248 %, R squared 0.884
  EC90: 1180 nM
Zika virus [1]; EC90 CI (lower) 0.007 uM, EC90 CI (upper) 0.18 uM, Hill slope -1.662, Maximum measured 169.951 %, Maximum response 100 %, Minimum measured 5.93 %, R squared 0.731
  EC90: 510 nM
Zika virus [1]; EC90 CI (lower) 0.03 uM, EC90 CI (upper) 0.119 uM, Hill slope -3.091, Maximum measured 117.52 %, Maximum response 100 %, Minimum measured 1.1 %, R squared 0.948
  EC90: 247 nM
Zika virus [1]; EC90 CI (lower) 0.051 uM, EC90 CI (upper) 0.519 uM, Hill slope -4.939, Maximum measured 48.685 %, Maximum response 50 %, Minimum measured […], R squared 0.852
  EC90: 395 nM
Zika virus [1]; EC90 CI (lower) 0.102 uM, EC90 CI (upper) 0.325 uM, Hill slope -1.64, Maximum measured 123.086 %, Maximum response 100 %, Minimum measured 10.677 %, R squared 0.94
  EC90: 2650 nM
Zika virus [1]; Hill slope -0.492, Maximum measured 74.448 %, Maximum response 100 %, Minimum measured 1.207 %, R squared 0.744
  EC90: > 10000 nM
Dengue virus type 2 [2]; EC90 CI (lower) 0.063 uM, EC90 CI (upper) 0.198 uM, Hill slope -1.33, Maximum measured 59.85 %, Minimum measured 0.021 %, R squared 0.933
  EC90: 3050 nM
Dengue virus type 2 [2]; EC90 CI (lower) 0.096 uM, EC90 CI (upper) 0.332 uM, Hill slope -1.394, Maximum measured 69.235 %, Minimum measured 0.073 %, R squared 0.818
  EC90: 4170 nM
Dengue virus type 2 [2]; EC90 CI (lower) 0.135 uM, EC90 CI (upper) 0.222 uM, Hill slope -1.408, Maximum measured 67.754 %, Minimum measured 0.12 %, R squared 0.962
  EC90: 3930 nM
Dengue virus type 2 [2]; EC90 CI (lower) 0.182 uM, EC90 CI (upper) 0.848 uM, Hill slope -1.407, Maximum measured 79.293 %, Minimum measured 0.097 %, R squared 0.879
  EC90: 8930 nM
Dengue virus type 2 [2]; EC90 CI (lower) 0.301 uM, EC90 CI (upper) 0.481 uM, Hill slope -1.99, Maximum measured 82.418 %, Minimum measured 0.182 %, R squared 0.957
  EC90: 3460 nM
Dengue virus type 2 [2]; EC90 CI (lower) 0.335 uM, EC90 CI (upper) 2.73 uM, Hill slope -2.159, Maximum measured 105.079 %, Minimum measured 6.932 %, R squared 0.477
  EC90: 7320 nM
Dengue virus type 2 [2]; EC90 CI (lower) 0.344 uM, EC90 CI (upper) 0.572 uM, Hill slope -2.092, Maximum measured 82.86 %, Minimum measured 0.014 %, R squared 0.949
  EC90: 3620 nM
Dengue virus type 2 [2]; EC90 CI (lower) 0.345 uM, EC90 CI (upper) 0.574 uM, Hill slope -1.668, Maximum measured 91.855 %, Minimum measured 0.191 %, R squared 0.984
  EC90: 6210 nM
Dengue virus type 2 [2]; EC90 CI (lower) 0.345 uM, EC90 CI (upper) 1.174 uM, Hill slope -1.957, Maximum measured 94.468 %, Minimum measured 0.047 %, R squared 0.91
  EC90: 6020 nM
Dengue virus type 2 [2]; EC90 CI (lower) 0.37 uM, EC90 CI (upper) 0.571 uM, Hill slope -1.792, Maximum measured 85.803 %, Minimum measured 0.04 %, R squared 0.97
  EC90: 5340 nM
Dengue virus type 2 [2]; EC90 CI (lower) 0.614 uM, EC90 CI (upper) 2.492 uM, Hill slope -4.433, Maximum measured 159.506 %, Minimum measured 0.037 %, R squared 0.838
  EC90: 3330 nM
Dengue virus type 2 [2]; EC90 CI (lower) 0.95 uM, EC90 CI (upper) 1.728 uM, Hill slope -2.215, Maximum measured 94.435 %, Minimum measured 0.459 %, R squared 0.976
  EC90: 9320 nM
Dengue virus type 2 [2]; EC90 CI (lower) 1.094 uM, EC90 CI (upper) 1.586 uM, Hill slope -2.299, Maximum measured 103.071 %, Minimum measured 0.093 %, R squared 0.991
  EC90: 8910 nM
Dengue virus type 2 [2]; EC90 CI (lower) 1.321 uM, EC90 CI (upper) 1.732 uM, Hill slope -3.141, Maximum measured 106.546 %, Minimum measured 0.058 %, R squared 0.995
  EC90: 6130 nM
Dengue virus type 2 [2]; EC90 CI (lower) 1.689 uM, EC90 CI (upper) 2.244 uM, Hill slope -3.785, Maximum measured 107.412 %, Minimum measured 0.007 %, R squared 0.985
  EC90: 6210 nM
Dengue virus type 2 [2]; EC90 CI (lower) […], EC90 CI (upper) 1.65 uM, Hill slope -1.956, Maximum measured 86.89 %, Minimum measured 0.152 %, R squared 0.926
  EC90: 9090 nM
Dengue virus type 2 [3]; EC90 CI (lower) 0.185 uM, EC90 CI (upper) 0.987 uM, Hill slope -1.843, Maximum measured 114.823 %, Minimum measured 1.4 %, R squared 0.854
  EC90: 4.64 µM
Dengue virus type 2 [3]; EC90 CI (lower) […] uM, EC90 CI (upper) 0.029 uM, Hill slope -0.795, Maximum measured 131.547 %, Minimum measured 0.898 %, R squared 0.782
  EC90: 1.45 µM
Dengue virus type 2 [3]; EC90 CI (lower) […] uM, EC90 CI (upper) 0.107 uM, Hill slope -1.582, Maximum measured 108.655 %, Minimum measured 1.401 %, R squared 0.84
  EC90: 0.595 µM
Dengue virus type 2 [3]; EC90 CI (lower) […] uM, EC90 CI (upper) 0.213 uM, Hill slope -0.879, Maximum measured 109.405 %, Minimum measured 0.502 %, R squared 0.793
  EC90: 8.04 µM
Zika virus [4]; EC90 CI (lower) 0.21 uM, EC90 CI (upper) 1.971 uM, Hill slope 4.843, Maximum measured 127.846 %, Minimum measured 44.624 %, R squared 0.529
  EC90: 644 nM
Zika virus [4]; EC90 CI (lower) 0.347 uM, EC90 CI (upper) 1.935 uM, Hill slope 4.005, Maximum measured 138.155 %, Minimum measured 32.327 %, R squared 0.565
  EC90: 819 nM
Zika virus [4]; EC90 CI (lower) 0.485 uM, EC90 CI (upper) 1.678 uM, Hill slope 2.708, Maximum measured 115.594 %, Minimum measured 50.299 %, R squared 0.731
  EC90: 902 nM
Zika virus [4]; EC90 CI (lower) 0.573 uM, EC90 CI (upper) 1.709 uM, Hill slope 2.773, Maximum measured 114.82 %, Minimum measured 43.135 %, R squared 0.56
  EC90: 990 nM
Zika virus [4]; EC90 CI (lower) 0.644 uM, EC90 CI (upper) 1.624 uM, Hill slope 2.782, Maximum measured 120.433 %, Minimum measured 40.681 %, R squared 0.677
  EC90: 1020 nM
Zika virus [4]; EC90 CI (lower) 0.736 uM, EC90 CI (upper) 2.012 uM, Hill slope 2.837, Maximum measured 119.107 %, Minimum measured 28.833 %, R squared 0.835
  EC90: 1220 nM
Zika virus [4]; EC90 CI (lower) 0.778 uM, EC90 CI (upper) 1.421 uM, Hill slope 2.877, Maximum measured 117.074 %, Minimum measured 36.973 %, R squared 0.767
  EC90: 1050 nM
Zika virus [4]; EC90 CI (lower) 1.744 uM, EC90 CI (upper) 2.505 uM, Hill slope 3.857, Maximum measured 108.608 %, Minimum measured 1.409 %, R squared 0.98
  EC90: 2090 nM
Zika virus [4]; Hill slope -0.24, Maximum measured 59.299 %, Minimum measured 14.65 %, R squared 0.03
  EC90: < 391 nM
Zika virus [5]; EC90 CI (lower) 0.609 uM, EC90 CI (upper) 2.047 uM, Hill slope 2.369, Maximum measured 114.788 %, Minimum measured 45.711 %, R squared 0.779
  EC90: 1120 nM
Zika virus [5]; EC90 CI (lower) 0.671 uM, EC90 CI (upper) 2.798 uM, Hill slope 1.934, Maximum measured 102.059 %, Minimum measured 46.421 %, R squared 0.63
  EC90: 1370 nM
Zika virus [5]; EC90 CI (lower) 0.837 uM, EC90 CI (upper) 2.594 uM, Hill slope 2.016, Maximum measured 108.843 %, Minimum measured 40.384 %, R squared 0.792
  EC90: 1470 nM
Zika virus [5]; EC90 CI (lower) 0.846 uM, EC90 CI (upper) 2.023 uM, Hill slope 2.239, Maximum measured 110.829 %, Minimum measured 40.755 %, R squared 0.884
  EC90: 1310 nM
Zika virus [5]; EC90 CI (lower) 0.889 uM, EC90 CI (upper) 2.697 uM, Hill slope 2.299, Maximum measured 106.469 %, Minimum measured 29.185 %, R squared 0.791
  EC90: 1550 nM
Zika virus [5]; EC90 CI (lower) 1.189 uM, EC90 CI (upper) 2.428 uM, Hill slope 2.067, Maximum measured 109.57 %, Minimum measured 34.796 %, R squared 0.858
  EC90: 1700 nM
Zika virus [5]; EC90 CI (lower) 1.447 uM, EC90 CI (upper) 5.92 uM, Hill slope 1.376, Maximum measured 98.736 %, Minimum measured 36.6 %, R squared 0.773
  EC90: 2930 nM
Zika virus [5]; EC90 CI (lower) 2.603 uM, EC90 CI (upper) 13.676 uM, Hill slope 1.372, Maximum measured 98.49 %, Minimum measured 18.919 %, R squared 0.79
  EC90: 5970 nM
Zika virus [5]; vero c1008
  EC50: 587 nM [middle of 8 runs]
